How the values were obtained:
yeast α-glucosidase = assay: α-glucosidase inhibition assay; type: biochemical; conditions: read-out: IC50 α-Glucosidase; Table 2; mean ± SD, n = 3
[1] = target: T1, PTP1B (human, recombinant) (Homo sapiens, UniProt P18031); assay: PTP1B inhibition assay; type: biochemical
T1 sequence (P18031 1-435): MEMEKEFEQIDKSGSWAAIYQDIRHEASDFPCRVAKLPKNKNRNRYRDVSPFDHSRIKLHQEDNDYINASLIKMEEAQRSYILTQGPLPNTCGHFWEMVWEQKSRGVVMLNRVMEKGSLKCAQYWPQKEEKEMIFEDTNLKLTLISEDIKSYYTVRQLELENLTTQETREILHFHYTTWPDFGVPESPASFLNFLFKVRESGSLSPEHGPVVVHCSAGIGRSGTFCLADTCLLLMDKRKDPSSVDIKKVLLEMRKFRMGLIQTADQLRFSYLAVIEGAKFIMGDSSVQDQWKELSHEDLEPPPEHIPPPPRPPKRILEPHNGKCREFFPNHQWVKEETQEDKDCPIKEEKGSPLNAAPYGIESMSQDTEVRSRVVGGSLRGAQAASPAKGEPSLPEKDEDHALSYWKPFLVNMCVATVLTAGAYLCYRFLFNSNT

Row | Structure (SMILES) | IC50 (yeast α-glucosidase) [µM] | IC50 [1] [µM]
1 | CC1(C)CC[C@]2(C(=O)O)CC[C@]3(C)C(=CC[C@@H]4[C@@]5(C)CC[C@H](O)C(C)(C)[C@@H]5CC[C@]43C)[C@@H]2C1 [Compound 7, Oleanolic acid] | 41.04 ± 0.34 | –
2 | CC[C@H](CC[C@@H](C)[C@H]1CC[C@H]2[C@@H]3CC=C4C[C@@H](O)CC[C@]4(C)[C@H]3CC[C@]12C)C(C)C [Compound 6, β-Sitosterol] | 69.41 ± 0.03 | > 100
